US12104201B2, “Engineered gyri-like mutein aptamers, and related methods” (CROSSLIFE TECHNOLOGIES INC., priority 2019, dated 2024)
Positions count from the first letter of the chain named. In names and notes the source's numbering stands. Entries after “also recorded” stand apart in the source; their conditions may differ. Where two headings read alike, the source gives them in different places.

What was measured:
[1] = molecular target: T1, CTR107 WT (C. tepidium Gyrl-like protein, wild type, SEQ ID NO:4) (Chlorobaculum tepidum, UniProt Q8KFZ1); assay: biochemical; type: binding; conditions: for Kd: read-out: dissociation constant
T1 construct: begins […]
T1 sequence (Q8KFZ1 entry or part of it): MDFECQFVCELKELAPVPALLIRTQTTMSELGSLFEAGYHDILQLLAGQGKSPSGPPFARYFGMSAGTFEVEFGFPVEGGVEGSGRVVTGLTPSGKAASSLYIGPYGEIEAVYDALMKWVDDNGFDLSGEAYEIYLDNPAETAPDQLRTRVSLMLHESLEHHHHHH

[2] = molecular target: T2, C. tepidium CTR107 variant Y106W (SEQ ID NO:20) (Chlorobaculum tepidum, UniProt Q8KFZ1, Y106W); assay: biochemical; type: binding
T2 sequence (Q8KFZ1 with tags, fused parts or gaps Y106W): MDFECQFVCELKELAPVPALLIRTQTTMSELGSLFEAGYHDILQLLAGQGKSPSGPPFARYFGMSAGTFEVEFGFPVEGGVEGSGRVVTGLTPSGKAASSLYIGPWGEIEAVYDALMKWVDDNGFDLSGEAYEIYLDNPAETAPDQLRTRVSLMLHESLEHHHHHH

[3] = molecular target: T3, LIN2189 WT (L. innocua Gyrl-like protein, wild type, SEQ ID NO:6) (Listeria innocua, UniProt Q929T5); assay: Fluorescence binding assay (enhancement/quenching of dye fluorescence)
T3 construct: recombinant, purified
T3 sequence (Q929T5 with tags, fused parts or gaps): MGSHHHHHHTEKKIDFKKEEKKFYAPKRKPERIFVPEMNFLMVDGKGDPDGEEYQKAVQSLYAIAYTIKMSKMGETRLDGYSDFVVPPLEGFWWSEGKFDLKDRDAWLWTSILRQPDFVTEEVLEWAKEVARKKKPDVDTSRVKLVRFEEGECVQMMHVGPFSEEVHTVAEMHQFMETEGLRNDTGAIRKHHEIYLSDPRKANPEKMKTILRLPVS
Procedure: Fluorescence Binding Assay
CTR107 when added at 10 μM induced a 10-fold increase in DFHBI fluorescence (FIG. 6A).
Malachite Green fluoresces in the far-red regions when stimulated by binding aptamers, therefore we monitored its fluorescence emission at 665-720 nm after exciting at 635 nm.
Thioflavin T is a benzothiazole dye that has also been used in many fluorescence applications. […] The Corn aptamer is able to bind to two Thioflavin T molecules at a homodimer interface formed by G-quadruplexes. We tested whether Gyrl-like proteins could function as fluorescence enhancement aptamers of Thioflavin T. Thioflavin T has excitation and emission maxima of […], respectively. We probed the fluorescence enhancing properties of SAV2435, CTR107 and LIN2189 variants on Thioflavin T (FIG. 8). […] All other variants display either a small 4-6 fold increase or no increase in Thioflavin T fluorescence.

[4] = molecular target: T4, SAV2435 WT (S. aureus Gyrl-like protein, wild type, SEQ ID NO:2) (Staphylococcus aureus, UniProt A0A0H3K0Y5); type: binding
T4 construct: listing organism Escherichia coli is only the host

[5] = molecular target: T5, C. tepidium CTR107 variant E133Q (SEQ ID NO:22) (Chlorobaculum tepidum, UniProt Q8KFZ1, E133Q); type: binding; conditions: 500 nM SYTO9
T5 sequence (Q8KFZ1 with tags, fused parts or gaps E133Q): T2 sequence (Q8KFZ1 with tags, fused parts or gaps Y106W) with W106Y, E133Q

[6] = molecular target: C. tepidium CTR107 variant E36R (SEQ ID NO:18) (Chlorobaculum tepidum, UniProt Q8KFZ1, E36R); type: binding; conditions: 500 nM SYTO9
Sequence of C. tepidium CTR107 variant E36R (SEQ ID NO:18) (Q8KFZ1 entry or part of it E36R): as the sequence (Q8KFZ1 entry or part of it) above, with E36R counted along it

[7] = molecular target: S. aureus SAV2435 variant V105W (SEQ ID NO:10) (Staphylococcus aureus, UniProt A0A0H3K0Y5, V105W); type: binding
[8] = molecular target: S. aureus SAV2435 variant P106W (SEQ ID NO:12) (Staphylococcus aureus, UniProt A0A0H3K0Y5, P106W); type: binding
[9] = molecular target: S. aureus SAV2435 variant N27W (SEQ ID NO:8) (Staphylococcus aureus, UniProt A0A0H3K0Y5, Q27W); type: binding; conditions: Oxazine 170
[10] = tested on: C. tepidium CTR107 variant Y106W (SEQ ID NO:20); assay: biochemical; type: binding
[11] = molecular target: S. aureus SAV2435 variant Y137W (SEQ ID NO:16) (Staphylococcus aureus, UniProt A0A0H3K0Y5, V105W/Y137W); type: binding; conditions: Oxazine 170
[12] = molecular target: S. aureus SAV2435 variant E135Q (SEQ ID NO:14) (Staphylococcus aureus, UniProt A0A0H3K0Y5, E135Q/V105W); type: binding; conditions: Oxazine 170
[13] = pH stability of Thiazole Orange fluorescence module
[14] = Acridine Orange fluorescence assay; conditions: 500 nM Acridine Orange
[15] = Colorimetric conversion of Iodonitrotetrazolium to Formazan; conditions: 100 μM NADH; 500 μM Iodonitrotetrazolium; 5 minutes
[16] = FAM fluorescence quenching assay; type: biochemical; conditions: 1 μM FAM, saturating protein
Source text: The fluorescence enhancing or quenching properties of Gyrl-like proteins can be used as a tool for identifying aptamers for target organic compounds. Building on Examples 1-8 we designed a protocol for identifying aptamers that bind to fluorescent dyes 5(6)-Carboxyfluorescein (FAM) and 5-Carboxytetramethylrhodamine (TAMRA) (FIG. 4). Both dyes are similar in structure and fluorescence in the green and red regions, respectively. The binding of FAM and TAMRA by Gyrl-like variant aptamers will result in enhancement or quenching of fluorescence. The invention method starts with screening our 3-selected wildtype Gyrl-like proteins to determine which can alter the fluorescence of FAM in solution (FIG. 11A).

TAMRA-DNA = assay: TAMRA-labeled DNA fluorescence quenching assay; conditions: 5 nM protein
[17] = UV fluorescence quenching of Oxazine 170 and reversibility; conditions: UV light
[18] = 1 μM SYTO9, 10 μM protein, em 665-720 nm
[19] = 1 μM SYTO9, 10 μM protein, ex 470 nm, em 510-580 nm
[20] = 1 μM Thiazole Orange, saturating protein
[21] = 500 nM Oxazine 170, saturating protein
[22] = 100 nM Oxazine 170, 100 nM protein
[23] = 500 nM Malachite Green, 10 μM protein, ex 635 nm, em 665-720 nm

Molecule: SYTO9
- fluorescence enhancement (red channel) [1, 18]: 33 fold
- fluorescence enhancement (green channel) [1, 19]: 84 fold
- Kd ([1]; SYTO9, estimated, fluorescence enhancement vs. protein concentration, Hill fit): 302 nM
- fluorescence enhancement (green channel) ([2]; 500 nM SYTO9): 115 fold
- fluorescence enhancement (red channel) ([2]; 500 nM SYTO9): 19 fold
- fluorescence enhancement (red and green channel) ([3]; SYTO9): small enhancement
- fluorescence enhancement (red channel) [4, 18]: 11 fold
- fluorescence enhancement (green channel) [4, 19]: 21 fold
- fluorescence enhancement (green channel) [5]: 157 fold
- fluorescence enhancement (red channel) [5]: 55 fold
- fluorescence enhancement compared to wildtype CTR107 [6]: weaker enhancement than wildtype

Molecule: CN1C(=Cc2cc[n+](C)c3ccccc23)Sc2ccccc21 [Thiazole Orange]
- effect on fluorescence [1, 20]: no effects; also recorded: no enhancement
- fluorescence enhancement (green channel) ([2]; Thiazole Orange): 13 fold
- fluorescence enhancement (red channel) ([2]; Thiazole Orange): 20 fold
- fluorescence enhancement vs. dye alone (red channel) ([7]; Thiazole Orange): 50 fold
- enhancement relative to wildtype ([7]; Thiazole Orange, vs SAV2435 WT): 3 fold
- effect on fluorescence [3, 20]: no effects
- increase in fluorescence (green channel) [4, 20]: 50 fold
- increase in fluorescence (red channel) [4, 20]: 5 fold
- fluorescence increase (channel not stated) ([4]; Thiazole Orange): 20 fold
- fluorescence enhancement vs. dye alone (red channel) ([8]; Thiazole Orange): 50 fold
- enhancement relative to wildtype ([8]; Thiazole Orange, vs SAV2435 WT): 3 fold

Molecule: Cc1ccc2c(c1)sc(-c1ccc(N(C)C)cc1)[n+]2C [Thioflavin T]
- fluorescence enhancement (green and red channel) ([1]; Thioflavin T): 50 fold
- fluorescence enhancement (green channel) ([3]; Thioflavin T): 13 fold
- fluorescence enhancement (red channel) ([3]; Thioflavin T): 50 fold

Molecule: CCN=c1cc2oc3cc(NCC)c(C)cc3nc-2c2ccccc12 [Oxazine 170]
- reduction in fluorescence [9]: 529 fold
- shut-off of fluorescence [9]: ~100%
- reduction in fluorescence (red channel) [1, 21]: 6 fold
- decrease in fluorescence ([2]; Oxazine 170): 47 fold
- quenching potency relative to CTR107 WT ([10]; Oxazine 170): 5 fold
- fluorescence decrease at 100 nM protein [7, 22]: 60%
- protein concentration for 50% quenching ([4]; 100 nM Oxazine 170): 10 to 50 nM
- fluorescence shut-off at 100 nM protein [4, 22]: ~100%
- decrease in fluorescence (red channel) [4, 21]: 303 fold
- shut-off of fluorescence [4, 21]: ~100%
- fluorescence decrease at 100 nM protein [8, 22]: 60%
- quenching effect [11]: small decrease
- reduction in fluorescence [12]: 303 fold
- shut-off of fluorescence [12]: ~100%

Molecule: CC1=N/C(=C\c2cc(F)c(O)c(F)c2)C(=O)N1C [DFHBI]
- increase in fluorescence ([1]; DFHBI, 10 μM protein): 10 fold
- effect on fluorescence ([3]; 500 nM DFHBI): no effect on fluorescence
- increase in fluorescence (green channel) ([4]; 500 nM DFHBI, 10 μM protein): 20 fold

Molecule: COc1cccc2c1C(=O)c1c(O)c3c(c(O)c1C2=O)C[C@@](O)(C(C)=O)C[C@@H]3O[C@H]1C[C@H](N)[C@H](O)[C@H](C)O1 [Daunorubicin]
- fluorescence decrease (green channel) ([1]; 50 μM daunorubicin): greater than 2 fold
- Kd ([1]; Daunorubicin, nonlinear regression, Hill equation): 4000 nM
- Kd [2]: 42 nM
- fluorescence decrease (green channel) ([2]; 50 μM daunorubicin): 3 fold
- increase in binding affinity compared to wildtype CTR107 ([10]; Daunorubicin): approximately 100 fold

Molecule: CN(C)c1ccc(C(=C2C=CC(=[N+](C)C)C=C2)c2ccccc2)cc1 [Malachite Green]
- increase in fluorescence (red channel) [1, 23]: 18 fold
- effect on fluorescence enhancement ([3]; 500 nM Malachite Green): no effect on fluorescence enhancement
- increase in fluorescence (red channel) [4, 23]: 10 fold

B1: SAV2435 P106W: SAV2435 variant aptamer, SEQ ID NO:12 (protein, listed as Escherichia coli)
chain: MEYQLQQLASLTLVGIKETYENGRQAQQHIAGFWQRCYQEGVIADLQLKNNGDLAGILGLCIPELDGKMSYMIAVTGDNSADIAKYDVITLASSKYMVFEAQGAVWKAVQQKMEEVHHYIHQYQANTVKSAPFFELYQDGDTTSEKYITEIWMPVKGLEHHHHHH
- decrease in Thiazole Orange fluorescence under acidic conditions ([13]; pH 3): 2 fold
- stability of Thiazole Orange fluorescence under basic conditions ([13]; pH 11): slightly more stable than acidic
- Acridine Orange fluorescence increase [14]: doubled the fluorescence intensity

B2: SAV2435 E135Q: SAV2435 variant aptamer, SEQ ID NO:14 (protein, listed as Escherichia coli)
chain: B1 chain with V105W, W106P, E135Q
- Acridine Orange fluorescence increase [14]: doubled the fluorescence intensity

B3: CTR107 E133Q: CTR107 variant aptamer, SEQ ID NO:22 (protein, listed as Escherichia coli)
chain: T2 sequence (Q8KFZ1 with tags, fused parts or gaps Y106W) with W106Y, E133Q
- color change of Iodonitrotetrazolium with NADH [15]: faint red signal
- Acridine Orange fluorescence increase [14]: doubled the fluorescence intensity

B4: LIN2189 E157A: LIN2189 variant aptamer, SEQ ID NO:28 (protein, listed as Escherichia coli)
chain: T3 sequence (Q929T5 with tags, fused parts or gaps) with E165A
- decrease in FAM fluorescence [16]: no changes in fluorescence quenching compared to LIN2189 WT
- effect on 100 nM TAMRA-DNA fluorescence (TAMRA-DNA): no effects on TAMRA fluorescence

B5: SAV2435 Y137W: SAV2435 variant aptamer, SEQ ID NO:16 (protein, listed as Escherichia coli)
chain: B1 chain with V105W, W106P, Y137W
- shut-off of Oxazine 170 red UV fluorescence [17]: non-quencher
